Reference: patent US9561215B2, “BAX-activating cancer therapeutics” (The University of Louisville Research Foundation Inc., priority 2014, dated 2017)

What was measured:
[1] = system: Bak^−/−Bax^−/− MEF cells stably re-expressing Bax, Bak, or the empty vector; assay: Cell death by propidium iodide exclusion in MEF cells re-expressing Bax or Bak; assay type: cell-based; settings: for rank by activity to induce Bax-dependent apoptosis: rank among the six Bax activator compounds
Protocol: (§1) Cell lines: Bak^−/−Bax^−/− murine embryonic fibroblast (MEF) cells expressing the empty vector, Bak or Bax were cultured as described previously. Human non-small cell lung carcinoma A549 and human pancreatic carcinoma Panc-1 were purchased from ATCC (Manassas, Va.). Untransformed and transformed MEF cells were kindly provided by Dr. Wei-Xing Zong. Bax^+/− and Bax^−/− HCT116 cells were obtained from Drs. Bert Vogelstein and Kenneth Kinzler. All cells were cultured at 37° C. in a 5% CO2 incubator as described previously (42). To generate A549 cells with reduced Bax expression or vector control, cells were first infected by Bax shRNA lentiviral particles or control shRNA lentiviral particles (Santa Cruz). Stable cells were obtained by culturing cells in the medium with 10 μg/ml puromycin.
Cell death analysis and Chou-Talalay synergism assay: Cell viability was measured by propidium iodide exclusion using flow cytometry (FACSCalibur, Becton Dickinson) as described previously. The synergistic effect between compound 106 and carboplatin or ABT-737 on cell viability was determined by Chou-Talalay median dose effect assay. IC50 of compound 106, carboplatin, and ABT-7373 on a tumor cell line was first determined. Different combinations of drugs at a fixed ratio higher or lower than their IC50 values were added to cells. After incubation for the indicated time, cell viability was examined and Fa was calculated as the ratio between the cell death levels of drug-treated cells and those of untreated control cells. Combination index (CI) was determined by the CompuSyn software (Biosoft, Cambridge, UK).
The inventors tested candidate agents by first determining whether cytotoxicity was dependent on Bax but not on Bak. Bax^−/−Bak^−/− murine embryonic fibroblast (MEF) cell lines stably re-expressing only Bax or Bak were established (FIG. 3).

A549 cells = assay: Chou-Talalay synergism assay in A549 cells; assay type: cell-based, human; settings: compound 106 (80-240 μM) with carboplatin (80-240 μM), constant ratio, 48 hours
Protocol: (§2) Cell death analysis and Chou-Talalay synergism assay: Cell viability was measured by propidium iodide exclusion using flow cytometry (FACSCalibur, Becton Dickinson) as described previously. […] IC50 of compound 106, carboplatin, and ABT-7373 on a tumor cell line was first determined. […] After incubation for the indicated time, cell viability was examined and Fa was calculated as the ratio between the cell death levels of drug-treated cells and those of untreated control cells. Combination index (CI) was determined by the CompuSyn software (Biosoft, Cambridge, UK).
(§3) To explore the potential of compound 106 functioning in combination chemotherapy, the inventors investigated whether compound 106 sensitizes tumor cells to die following simultaneous treatment with a chemotherapeutic drug. Carboplatin is currently used to treat non-small-cell lung cancer and human pancreatic cancer. To investigate whether the cytotoxic effects of compound 106 and carboplatin on human tumor cells were synergistic, the inventors carried out median-effect analysis using the Chou-Talalay method. After 48 hours of treatment, the cell death levels of A549 and PANC-1 cells treated with various concentrations of compound 106 and carboplatin at a constant dose ratio were measured, and the combination index (CI) values were determined.

PANC-1 cells = assay: Chou-Talalay synergism assay in PANC-1 cells; assay type: cell-based, human; settings: compound 106 (3.3-240 μM) with carboplatin (3.3-240 μM), constant ratio, 48 hours
Protocol: as §2, §3

[2] = system: Bax^+/− and Bax^−/− HCT116 cells; assay: Cell death in HCT116 cells with or without Bax expression; assay type: cell-based, human; settings: 48 hour incubation
Protocol: as §1
(§4) Cell death analysis and Chou-Talalay synergism assay: Cell viability was measured by propidium iodide exclusion using flow cytometry (FACSCalibur, Becton Dickinson) as described previously. […] IC50 of compound 106, carboplatin, and ABT-7373 on a tumor cell line was first determined. […] After incubation for the indicated time, cell viability was examined and Fa was calculated as the ratio between the cell death levels of drug-treated cells and those of untreated control cells. Combination index (CI) was determined by the CompuSyn software (Biosoft, Cambridge, UK). […]

[3] = system: A549 cells with Bax shRNA or control shRNA vector; assay: Cell death in A549 cells with reduced Bax expression or control shRNA; assay type: cell-based, human; settings: 48 hour incubation
Protocol: as §1, §4

Bax = Bax (Homo sapiens, UniProt Q07812); settings: non-canonical BH3 interaction site; cited from earlier work
Chain of Bax (Q07812 whole entry, species assumed): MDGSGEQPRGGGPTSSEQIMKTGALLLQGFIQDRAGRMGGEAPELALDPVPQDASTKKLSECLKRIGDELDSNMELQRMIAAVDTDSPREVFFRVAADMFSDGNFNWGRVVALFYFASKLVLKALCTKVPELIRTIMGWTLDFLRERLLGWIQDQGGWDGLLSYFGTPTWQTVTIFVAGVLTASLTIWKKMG

[4] = system: anti-apoptotic Bcl-2 proteins, including Bcl-2, Bcl-xL, and Bcl-w; settings: cited from earlier work

COc1cccc(Cn2nc(C(=O)N3CCCC(O)C3)c3c2CCN(Cc2ccc(C)c(C)c2)C3)c1 (stereo not drawn) [compound 106, 1-{[5-(3,4-dimethylbenzyl)-1-(3-methoxybenzyl)-4,5,6,7-tetrahydro-1H-pyrazolo[4,3-c]pyridin-3-yl]carbonyl}-3-piperidinol]
cytotoxicity dependent on Bax but not on Bak (test of the 46 candidate agents) ([1]; MEF cell lines re-expressing only Bax or Bak, and Bax−/−Bak−/− MEFs): exhibited the highest Bax- and dose-dependent cytotoxicity | rank by activity to induce Bax-dependent apoptosis [1]: 1 | combination index (CI) (A549 cells): smaller than 1 | combination index (CI) (PANC-1 cells): smaller than 1

CC[C@]1(O)C[C@H]2CN(CCc3c([nH]c4ccccc34)[C@@](C(=O)OC)(c3cc4c(cc3OC)N(C=O)[C@H]3[C@@](O)(C(=O)OC)[C@H](OC(C)=O)[C@]5(CC)C=CCN6CC[C@]43[C@@H]65)C2)C1 [vincristine]
cell death, Bax expressing versus Bax lacking HCT116 cells [2]: Lack of Bax expression in HCT116 cells did not affect killing activities | cell death, reduced Bax expression versus control shRNA [3]: Decrease in Bax expression did not affect killing activities

COc1ccccc1N1CCN(Cn2nc(-c3ccc(F)cc3)n(CC3CCCO3)c2=S)CC1 (stereo not drawn) [ZINC16076241, 5-(4-fluorophenyl)-2-[[4-(2-methoxyphenyl)piperazin-1-yl]methyl]-4-(oxolan-2-ylmethyl)-1,2,4-triazole-3-thione]
rank by activity to induce Bax-dependent apoptosis [1]: 5

N.N.O=C([O-])C1(C(=O)[O-])CCC1.[Pt+2] [carboplatin, cis-Diammine (1,1-cyclobutanedicarboxylato)platinum(II)]
cell death, Bax expressing versus Bax lacking HCT116 cells [2]: Lack of Bax expression in HCT116 cells did not affect killing activities | cell death, reduced Bax expression versus control shRNA [3]: Decrease in Bax expression did not affect killing activities

CC(C)CN1CC(OCc2cccnc2)CN(C(=O)Cc2ccc3c(c2)OCO3)CC1=O (stereo not drawn) [ZINC14531256, 4-(1,3-benzodioxol-5-ylacetyl)-1-isobutyl-6-(3-pyridinylmethoxy)-1,4-diazepan-2-one]
rank by activity to induce Bax-dependent apoptosis [1]: 6

CSc1ccc(C2N=C3NCN(Cc4cccnc4)CN3c3nc4ccccc4n32)cc1 (stereo not drawn) [ZINC 13638227, 6-(4-(methylthio)phenyl)-2-(pyridin-3-ylmethyl)-2,3,4,6-tetrahydro-1H-benzo[4,5]imidazo[1,2-a][1,3,5]triazino[1,2-c][1,3,5]triazine]
rank by activity to induce Bax-dependent apoptosis [1]: 3

CCn1nc(C)c(CN2CCCC(N3CCN(c4ccc(OC)cc4)CC3)C2)c1C (stereo not drawn) [ZINC20110124, 1-{1-[(1-ethyl-3,5-dimethyl-1H-pyrazol-4-yl)methyl]-3-piperidinyl}-4-(4-methoxyphenyl)piperazine]
rank by activity to induce Bax-dependent apoptosis [1]: 2

BAM7
Bax binding and activation (Bax): directly binds Bax and activates Bax by triggering Bax oligomerization

CN(C)CC[C@H](CSc1ccccc1)Nc1ccc(S(=O)(=O)NC(=O)c2ccc(N3CCN(Cc4ccccc4-c4ccc(Cl)cc4)CC3)cc2)cc1[N+](=O)[O-] [ABT-737]
binding affinity [4]: bind with high affinity

COc1ccccc1-c1nc2cc(N)cc(C(=O)NC3CCCN(Cc4ccccc4)C3)c2n1C (stereo not drawn) [ZINC 12150973, 5-amino-N-(1-benzyl-3-piperidinyl)-2-(2-methoxyphenyl)-1-methyl-1H-benzimidazole-7-carboxamide]
rank by activity to induce Bax-dependent apoptosis [1]: 4
